Each block holds one molecule with its values, some of them ahead of it.
Columns and labels:
[1] = molecular target: Sodium channel protein type 2 subunit alpha (Homo sapiens, UniProt Q99250); test: Selectivity interaction (CEREP panel (receptors, ion chanels, radiometric assay)) EUB0000192d SCN2A
[2] = molecular target: Chromatin remodeling regulator CECR2 (Homo sapiens, UniProt Q9BXF3)
[3] = molecular target: Bromodomain adjacent to zinc finger domain protein 2A (Homo sapiens) (UniProt Q9UIF9)
[4] = molecular target: Cyclin-dependent kinase 11A (Homo sapiens, UniProt Q9UQ88); test: Selectivity interaction (ScanMAX (DiscoverX)) EUB0000005b CDK11A
[5] = molecular target: Tyrosine-protein kinase Lyn (Homo sapiens, UniProt P07948); test: Selectivity interaction (NanoBRET assay (HEK293T cells)) EUB0000713a LYN
[6] = molecular target: Mitogen-activated protein kinase 14 (Homo sapiens, UniProt Q16539); test: Selectivity interaction (KinomeScan (DiscoverX)) EUB0000713a MAPK14; conditions: at 100 nM
[7] = molecular target: T1, Gamma-aminobutyric acid receptor subunit alpha-1 (Homo sapiens, UniProt P14867); test: Selectivity interaction (GPCR panel (PDSP screen)) EUB0000713a GABRA1
T1 sequence (P14867 whole entry): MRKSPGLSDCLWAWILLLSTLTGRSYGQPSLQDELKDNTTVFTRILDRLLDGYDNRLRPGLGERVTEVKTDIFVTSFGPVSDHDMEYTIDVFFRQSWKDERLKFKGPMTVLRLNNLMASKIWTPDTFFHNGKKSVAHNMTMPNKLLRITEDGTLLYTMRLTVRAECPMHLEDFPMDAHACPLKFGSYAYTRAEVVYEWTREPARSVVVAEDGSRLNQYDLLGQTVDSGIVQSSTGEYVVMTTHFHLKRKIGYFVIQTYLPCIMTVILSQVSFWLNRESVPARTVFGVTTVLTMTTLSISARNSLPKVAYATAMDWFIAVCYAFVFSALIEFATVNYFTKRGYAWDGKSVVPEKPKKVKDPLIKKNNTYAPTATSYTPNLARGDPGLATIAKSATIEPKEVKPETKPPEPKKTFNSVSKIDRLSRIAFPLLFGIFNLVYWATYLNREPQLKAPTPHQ

[8] = molecular target: Serine/threonine-protein kinase PAK 3 (Homo sapiens, UniProt O75914); test: Selectivity interaction (KinomeScan (DiscoverX)) EUB0000713a PAK3; conditions: at 100 nM
[9] = molecular target: Serine/threonine-protein kinase 10 (Homo sapiens) (UniProt O94804); test: Selectivity interaction (KinomeScan (DiscoverX)) EUB0000713a STK10; conditions: at 100 nM
[10] = molecular target: T2, Ephrin type-B receptor 6 (Homo sapiens) (UniProt O15197); test: Selectivity interaction (KinomeScan (DiscoverX)) EUB0000713a EPHB6; conditions: at 100 nM
T2 sequence (whole entry): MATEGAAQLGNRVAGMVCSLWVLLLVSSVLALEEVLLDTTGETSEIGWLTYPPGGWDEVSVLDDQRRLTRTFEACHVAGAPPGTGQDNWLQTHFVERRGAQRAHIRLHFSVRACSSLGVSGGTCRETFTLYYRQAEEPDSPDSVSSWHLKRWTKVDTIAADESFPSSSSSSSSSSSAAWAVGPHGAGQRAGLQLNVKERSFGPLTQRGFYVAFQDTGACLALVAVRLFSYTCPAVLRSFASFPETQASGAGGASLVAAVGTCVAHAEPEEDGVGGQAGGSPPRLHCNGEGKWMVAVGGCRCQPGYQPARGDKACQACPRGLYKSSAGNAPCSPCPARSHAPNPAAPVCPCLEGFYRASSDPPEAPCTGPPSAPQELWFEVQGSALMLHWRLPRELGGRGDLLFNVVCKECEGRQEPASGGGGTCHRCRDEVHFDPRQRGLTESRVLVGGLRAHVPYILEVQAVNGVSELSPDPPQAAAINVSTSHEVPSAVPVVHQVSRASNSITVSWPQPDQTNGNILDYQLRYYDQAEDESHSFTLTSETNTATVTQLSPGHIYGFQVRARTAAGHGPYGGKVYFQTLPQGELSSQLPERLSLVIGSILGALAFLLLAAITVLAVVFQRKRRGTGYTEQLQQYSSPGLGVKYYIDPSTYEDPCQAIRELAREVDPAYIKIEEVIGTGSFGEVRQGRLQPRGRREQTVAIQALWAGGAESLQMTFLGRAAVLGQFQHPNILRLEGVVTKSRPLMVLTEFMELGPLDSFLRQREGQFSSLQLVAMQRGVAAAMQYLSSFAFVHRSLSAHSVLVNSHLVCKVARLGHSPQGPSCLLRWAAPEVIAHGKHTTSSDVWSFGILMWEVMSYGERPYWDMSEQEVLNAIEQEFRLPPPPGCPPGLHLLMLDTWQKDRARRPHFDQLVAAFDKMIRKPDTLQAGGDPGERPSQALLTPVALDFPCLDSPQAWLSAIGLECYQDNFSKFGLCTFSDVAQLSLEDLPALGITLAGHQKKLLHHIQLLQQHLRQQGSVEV

[11] = molecular target: Mitogen-activated protein kinase 9 (Homo sapiens, UniProt P45984); test: Selectivity interaction (ActivX KiNative profiling assay (in HCT-116 cell line (CRL-1619))) EUB0000642a MAPK9
[12] = molecular target: Dual specificity tyrosine-phosphorylation-regulated kinase 3 (Homo sapiens) (UniProt O43781); test: Selectivity interaction (KinomeScan ([…])) EUB0000642a DYRK3; conditions: at 3 µM
[13] = molecular target: Phosphorylase b kinase gamma catalytic chain, skeletal muscle/heart isoform (Homo sapiens) (UniProt Q16816); test: Selectivity interaction (KinomeScan ([…])) EUB0000642a PHKG1; conditions: at 3 µM
[14] = molecular target: Dual specificity tyrosine-phosphorylation-regulated kinase 1B (Homo sapiens, UniProt Q9Y463); test: Selectivity interaction (KinomeScan ([…])) EUB0000642a DYRK1B; conditions: at 3 µM
[15] = molecular target: Dual specificity tyrosine-phosphorylation-regulated kinase 1A (Homo sapiens, UniProt Q13627); test: Selectivity interaction (KinomeScan (Invitrogen)) EUB0000642a DYRK1A; conditions: at 3 µM
[16] = molecular target: Dual specificity protein kinase CLK1 (Homo sapiens, UniProt P49759); conditions: at 3 µM
[17] = molecular target: Phosphatidylinositol 5-phosphate 4-kinase type-2 gamma (Homo sapiens, UniProt Q8TBX8); test: Selectivity interaction (ActivX KiNative profiling assay (in HCT-116 cell line (CRL-1619))) EUB0000642a PIP4K2C
[18] = molecular target: Mitogen-activated protein kinase 10 (Homo sapiens, UniProt P53779); test: Selectivity interaction (ActivX KiNative profiling assay (in HCT-116 cell line (CRL-1619))) EUB0000642a MAPK10
[19] = molecular target: Mitogen-activated protein kinase 8 (Homo sapiens, UniProt P45983); test: Selectivity interaction (ActivX KiNative profiling assay (in HCT-116 cell line (CRL-1619))) EUB0000642a MAPK8
Chain of Mitogen-activated protein kinase 8 (P45983 whole entry): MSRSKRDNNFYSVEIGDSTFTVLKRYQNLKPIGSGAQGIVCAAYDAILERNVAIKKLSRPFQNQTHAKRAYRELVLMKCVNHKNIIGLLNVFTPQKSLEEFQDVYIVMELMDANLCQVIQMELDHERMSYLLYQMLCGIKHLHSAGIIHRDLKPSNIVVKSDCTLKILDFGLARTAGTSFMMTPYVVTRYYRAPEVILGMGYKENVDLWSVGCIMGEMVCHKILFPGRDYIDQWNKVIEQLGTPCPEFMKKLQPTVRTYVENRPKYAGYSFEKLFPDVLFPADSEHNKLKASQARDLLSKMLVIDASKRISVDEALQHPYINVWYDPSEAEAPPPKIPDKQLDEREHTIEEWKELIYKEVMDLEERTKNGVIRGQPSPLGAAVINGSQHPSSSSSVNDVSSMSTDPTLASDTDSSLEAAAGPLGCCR

Chain of Cyclin-dependent kinase 11A (Q9UQ88 whole entry): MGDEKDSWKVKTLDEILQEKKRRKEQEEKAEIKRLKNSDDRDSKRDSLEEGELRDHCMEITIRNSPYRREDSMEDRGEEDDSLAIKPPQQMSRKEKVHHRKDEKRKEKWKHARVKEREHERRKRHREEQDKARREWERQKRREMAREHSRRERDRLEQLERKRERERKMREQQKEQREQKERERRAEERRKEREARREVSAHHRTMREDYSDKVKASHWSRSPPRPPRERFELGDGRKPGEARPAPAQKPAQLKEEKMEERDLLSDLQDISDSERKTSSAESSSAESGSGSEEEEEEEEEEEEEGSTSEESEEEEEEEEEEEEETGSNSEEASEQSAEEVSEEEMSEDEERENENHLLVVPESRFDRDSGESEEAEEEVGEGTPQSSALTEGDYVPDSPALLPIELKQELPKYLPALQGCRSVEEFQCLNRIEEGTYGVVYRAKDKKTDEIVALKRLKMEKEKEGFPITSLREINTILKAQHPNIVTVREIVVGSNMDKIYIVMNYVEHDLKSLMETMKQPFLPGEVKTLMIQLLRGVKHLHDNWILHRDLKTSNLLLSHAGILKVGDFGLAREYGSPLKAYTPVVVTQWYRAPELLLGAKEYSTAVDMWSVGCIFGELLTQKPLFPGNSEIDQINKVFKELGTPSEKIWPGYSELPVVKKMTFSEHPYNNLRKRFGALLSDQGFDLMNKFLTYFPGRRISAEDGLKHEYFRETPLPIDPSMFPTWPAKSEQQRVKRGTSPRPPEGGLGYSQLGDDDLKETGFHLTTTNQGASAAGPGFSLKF
Chain of Mitogen-activated protein kinase 14 (Q16539 whole entry): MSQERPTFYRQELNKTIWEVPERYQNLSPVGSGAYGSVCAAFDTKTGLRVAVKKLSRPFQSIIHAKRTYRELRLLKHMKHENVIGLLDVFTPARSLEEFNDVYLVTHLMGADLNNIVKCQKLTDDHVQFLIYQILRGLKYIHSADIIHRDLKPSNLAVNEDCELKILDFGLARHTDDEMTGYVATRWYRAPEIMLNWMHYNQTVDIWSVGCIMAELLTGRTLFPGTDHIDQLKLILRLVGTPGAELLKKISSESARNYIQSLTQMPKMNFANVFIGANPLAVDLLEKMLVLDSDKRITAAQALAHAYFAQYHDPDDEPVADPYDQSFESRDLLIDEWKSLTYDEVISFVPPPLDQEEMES
Chain of Sodium channel protein type 2 subunit alpha (Q99250 whole entry): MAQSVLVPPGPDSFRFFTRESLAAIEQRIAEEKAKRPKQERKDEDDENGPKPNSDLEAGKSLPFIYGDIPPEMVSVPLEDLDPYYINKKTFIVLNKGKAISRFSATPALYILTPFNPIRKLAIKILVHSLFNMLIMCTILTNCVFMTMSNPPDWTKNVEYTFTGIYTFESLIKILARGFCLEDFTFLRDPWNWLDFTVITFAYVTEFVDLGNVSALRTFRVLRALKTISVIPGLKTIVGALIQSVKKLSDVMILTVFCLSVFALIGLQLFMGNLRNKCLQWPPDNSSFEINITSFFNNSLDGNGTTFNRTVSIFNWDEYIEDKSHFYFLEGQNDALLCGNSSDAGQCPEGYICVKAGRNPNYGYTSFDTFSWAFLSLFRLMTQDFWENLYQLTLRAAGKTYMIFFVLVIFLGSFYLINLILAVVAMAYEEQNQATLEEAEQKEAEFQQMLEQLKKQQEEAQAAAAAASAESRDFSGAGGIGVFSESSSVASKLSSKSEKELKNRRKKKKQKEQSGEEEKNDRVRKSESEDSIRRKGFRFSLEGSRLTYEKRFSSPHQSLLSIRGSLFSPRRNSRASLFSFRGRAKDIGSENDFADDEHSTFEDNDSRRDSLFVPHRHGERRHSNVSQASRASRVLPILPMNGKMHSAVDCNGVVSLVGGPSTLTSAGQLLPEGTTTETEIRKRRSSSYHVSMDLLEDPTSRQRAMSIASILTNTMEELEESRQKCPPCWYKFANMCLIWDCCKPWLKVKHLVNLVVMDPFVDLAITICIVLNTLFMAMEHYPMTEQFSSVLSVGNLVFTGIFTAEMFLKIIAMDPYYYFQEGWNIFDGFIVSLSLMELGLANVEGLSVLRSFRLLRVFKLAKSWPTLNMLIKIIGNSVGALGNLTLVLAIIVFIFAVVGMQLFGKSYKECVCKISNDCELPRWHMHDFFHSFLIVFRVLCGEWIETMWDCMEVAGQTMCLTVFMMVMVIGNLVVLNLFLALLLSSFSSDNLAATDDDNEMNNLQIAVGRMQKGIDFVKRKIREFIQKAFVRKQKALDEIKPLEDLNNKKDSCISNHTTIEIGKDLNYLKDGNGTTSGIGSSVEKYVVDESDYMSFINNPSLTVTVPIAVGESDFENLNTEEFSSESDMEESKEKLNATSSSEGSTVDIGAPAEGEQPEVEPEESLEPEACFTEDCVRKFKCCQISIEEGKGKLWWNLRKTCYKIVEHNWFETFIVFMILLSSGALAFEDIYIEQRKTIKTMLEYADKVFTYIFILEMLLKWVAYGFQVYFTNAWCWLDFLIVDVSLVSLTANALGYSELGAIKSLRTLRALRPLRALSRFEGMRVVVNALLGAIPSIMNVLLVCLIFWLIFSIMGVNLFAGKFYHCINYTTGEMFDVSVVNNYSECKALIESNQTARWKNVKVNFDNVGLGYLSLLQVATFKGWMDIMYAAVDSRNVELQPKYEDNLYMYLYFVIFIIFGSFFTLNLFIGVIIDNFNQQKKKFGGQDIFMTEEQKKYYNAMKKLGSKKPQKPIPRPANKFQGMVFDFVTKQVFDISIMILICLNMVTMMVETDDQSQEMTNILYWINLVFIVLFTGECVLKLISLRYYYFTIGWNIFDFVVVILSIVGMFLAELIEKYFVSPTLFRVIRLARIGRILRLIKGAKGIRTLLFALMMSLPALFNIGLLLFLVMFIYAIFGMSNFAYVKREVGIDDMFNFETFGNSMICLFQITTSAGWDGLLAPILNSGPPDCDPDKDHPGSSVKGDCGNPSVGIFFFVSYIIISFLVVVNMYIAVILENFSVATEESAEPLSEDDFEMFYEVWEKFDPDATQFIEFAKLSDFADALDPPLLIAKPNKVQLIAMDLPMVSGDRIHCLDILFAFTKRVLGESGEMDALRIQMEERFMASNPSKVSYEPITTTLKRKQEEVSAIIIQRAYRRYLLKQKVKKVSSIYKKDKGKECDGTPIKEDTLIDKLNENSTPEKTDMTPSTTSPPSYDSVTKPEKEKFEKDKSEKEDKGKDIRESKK
Chain of Dual specificity tyrosine-phosphorylation-regulated kinase 3 (Homo sapiens) (O43781 whole entry, canonical isoform): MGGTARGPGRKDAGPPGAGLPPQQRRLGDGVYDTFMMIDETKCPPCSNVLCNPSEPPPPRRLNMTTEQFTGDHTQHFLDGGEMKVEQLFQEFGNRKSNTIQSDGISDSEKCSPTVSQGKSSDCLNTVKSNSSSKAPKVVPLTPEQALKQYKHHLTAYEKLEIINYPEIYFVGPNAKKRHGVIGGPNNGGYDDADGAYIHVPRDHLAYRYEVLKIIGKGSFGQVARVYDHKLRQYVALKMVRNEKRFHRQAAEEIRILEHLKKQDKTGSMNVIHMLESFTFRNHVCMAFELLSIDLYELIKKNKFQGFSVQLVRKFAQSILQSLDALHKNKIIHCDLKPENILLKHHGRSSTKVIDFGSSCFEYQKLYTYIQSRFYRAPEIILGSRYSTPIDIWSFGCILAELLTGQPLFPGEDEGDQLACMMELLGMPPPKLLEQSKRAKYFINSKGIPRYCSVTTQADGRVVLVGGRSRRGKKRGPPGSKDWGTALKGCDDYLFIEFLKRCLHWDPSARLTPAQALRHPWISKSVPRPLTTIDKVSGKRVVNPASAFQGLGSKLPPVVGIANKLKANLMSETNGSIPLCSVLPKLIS
Chain of Tyrosine-protein kinase Lyn (P07948 whole entry): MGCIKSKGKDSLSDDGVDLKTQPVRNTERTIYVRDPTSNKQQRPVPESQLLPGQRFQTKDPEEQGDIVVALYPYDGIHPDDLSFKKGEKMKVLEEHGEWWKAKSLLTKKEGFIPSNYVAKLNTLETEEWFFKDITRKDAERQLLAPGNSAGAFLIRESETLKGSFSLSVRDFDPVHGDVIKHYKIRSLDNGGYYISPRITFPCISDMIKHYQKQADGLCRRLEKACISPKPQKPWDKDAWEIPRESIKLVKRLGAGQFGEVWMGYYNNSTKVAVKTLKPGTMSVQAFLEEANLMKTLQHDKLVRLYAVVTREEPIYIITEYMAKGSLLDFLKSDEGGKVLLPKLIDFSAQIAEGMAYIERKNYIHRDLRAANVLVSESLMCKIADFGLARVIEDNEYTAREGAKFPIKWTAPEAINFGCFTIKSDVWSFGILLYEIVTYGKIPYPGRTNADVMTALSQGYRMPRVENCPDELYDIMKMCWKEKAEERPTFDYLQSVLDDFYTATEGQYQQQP
Chain of Phosphorylase b kinase gamma catalytic chain, skeletal muscle/heart isoform (Homo sapiens) (Q16816 whole entry, looked up, canonical isoform): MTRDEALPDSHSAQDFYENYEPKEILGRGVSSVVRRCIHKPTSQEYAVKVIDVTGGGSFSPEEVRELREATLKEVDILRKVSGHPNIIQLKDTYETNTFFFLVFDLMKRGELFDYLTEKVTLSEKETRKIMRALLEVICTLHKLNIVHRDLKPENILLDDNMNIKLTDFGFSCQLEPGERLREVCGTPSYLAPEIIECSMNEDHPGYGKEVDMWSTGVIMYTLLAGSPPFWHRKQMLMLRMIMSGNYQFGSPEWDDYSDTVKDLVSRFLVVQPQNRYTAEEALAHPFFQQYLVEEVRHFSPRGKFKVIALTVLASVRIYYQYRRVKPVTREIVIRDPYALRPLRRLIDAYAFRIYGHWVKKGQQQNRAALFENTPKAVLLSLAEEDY

IC50 [1]: 6.6 µM
dTm [2]: 2 K
dTm [3]: 5.2 K
SMILES: Cn1cc(CCn2cnc(-c3cnn(C)c3)c2-c2ccc(C#N)cc2)cn1

Kd [4]: 0.37 µM
SMILES: Cc1cn(-c2cc(NC(=O)c3ccc4c(c3)CN(c3cncnc3)C[C@@H]4C)cc(C(F)(F)F)c2)cn1

EC50 [5]: 7.4 µM
% of control [6]: 0%
Ki [7]: 0.217 µM
% of control [8]: 26.1%
% of control [9]: 1.8%
% of control [10]: 3%
SMILES: Cc1cc(C)c(-n2ccn3nc(-c4cccnc4)cc23)cc1NC(=O)c1cc(C#N)cc(S(F)(F)(F)(F)F)c1 [BAY-826]

IC50 [11]: 0.68 µM
% of inhibition [12]: 95%
% of inhibition [13]: 96%
% of inhibition [14]: 98%
% of inhibition [15]: 94%
% of inhibition [16]: 99%
IC50 [17]: 1.3 µM
IC50 [18]: 0.68 µM
IC50 [19]: 0.68 µM
SMILES: CNC(=O)c1ccc(Nc2nc(OC3CCCC3)c3c(-c4ccc5nc(C)oc5c4)c[nH]c3n2)c(OC)c1
